{"source": "patent US6989270B1", "about": "“Using polyamide nucleic acid oligomers to engender a biological response” (Mayo Foundation for Medical Education and Research, priority 1997, dated 2006)", "key": {"NTR1 mRNA": {"test_system": "NTR1 mRNA", "assay": "Quantitative RT-PCR of NTR1 mRNA relative to GAPDH", "format": "in vivo", "conditions": "treated intracranially, 5 μg; at 8 hours", "protocol": "(§1) Messenger RNA (mRNA) levels for NTR1, MU1R, and GAPDH were measured in control and PNA-treated animals. Briefly, total RNA was isolated from approximately 20 mg of tissue using the S.N.A.P. total RNA Isolation Kit (Invitrogen, Carlsbad, Calif.). Quantitative RT-PCR was performed on treated and control animals using GAPDH as an internal standard and PCR fragments of the human NTR and of a GAPDH deletion mutant as exogenous standards. First strand cDNA was synthesized from approximately 500 ng of total RNA using the cDNA Cycle Kit (Invitrogen, Carlsbad, Calif.). PCR was performed on a GeneAmp PCR System 9600 (Perkin Elmer, Norwalk, Conn.) using end-labeled primer and TAq DNA Polymerase (Gibco-BRL, Gaithersburg, Md.). Products were separated on a 5% acrylamide gel containing 7 M urea, and detected using a Storm860 Phosphoimager (Molecular Dynamics, Sunnyvale, Calif.). Data were analyzed using ImageQuant Software (Molecular Dynamics, Sunnyvale Calif.). To control for any diurnal mRNA level fluctuations that may occur, the PNA injection time was controlled such that the tissue harvest time was identical in each animal group."}, "MU1R mRNA": {"test_system": "MU1R mRNA", "assay": "Quantitative RT-PCR of MU1R mRNA relative to GAPDH", "format": "in vivo", "conditions": "treated intracranially, 5 μg", "protocol": "as §1"}, "[1]": {"test_system": "neurotensin receptor-1 (NTR1)", "assay": "Hot plate test of NT-mediated anti-nociception in PNA-treated rats", "format": "in vivo, rat", "protocol": "Under an Institutional Animal Care and Use Committee approved protocol and under sterile conditions male Sprague-Dawley rats (180-200 g) were stereotaxically implanted with stainless steel guide cannulae (26 gauge) into the PAG under sodium pentobarbital anesthesia (50 mg/kg, i.p.) as described in detail elsewhere (Jensen T. S. and Yaksh T. L., Brain Res. 372:301-312 (1986) and Al-Rodhan N.R.F., Brain Res. 557:227-235 (1991)). The coordinates used for PAG cannulations are -5.6 mm posterior from bregma, 1.0 mm lateral from bregma, and 5.5 mm down from the dura. The guide cannula was pre-measured to be 5.5 mm (Plastics One, Roanoke, Va.) and the internal cannula was ordered to fit below the pedestal with a 2.0 mm projection. The guide cannula was then fixed to the skull using a stainless steel screw (⅛ inch) and cranioplastic cement. A stainless steel stilette was then placed in each guide to keep it patent and free of debris. Immediately after surgery, the animals were allowed to recover before returning them to an individual housing cage. All injections began 5-7 days after surgery.\nNTR1-PNA oligomers were injected, using a Hamilton digital syringe, into the PAG through the internal cannula, which extended 2 mm below the guide tip. The internal cannula was connected with a length of polyethylene tubing (PE-20) filled with saline solution. A small air bubble was introduced into the tubing to separate the saline from a solution containing 1.3 nmol of NTR1-PNA oligomers in artificial cerebral-spinal fluid (ACSF). The volume of the solution containing the NTR1-PNA oligomers was about 1.0 μl. The bubble was used to confirm the movement of this solution through the polyethylene tubing.\nNTR1-PNA oligomers were injected into the PAG of each rat three times, on days -4, -2, and 0. Controls included rats receiving no injections, rats receiving injections of ACSF only, and rats receiving PNA oligomers having sequence specificity for an unrelated polypeptide, the mu-1 morphine receptor (MU1R). The sequence of MU1R-PNA is 5′-[…]-3′ (SEQ ID NO: 2).\nThe injection of NT in the PAG of rats produces a potent anti-nociceptive response as well as hypothermia. These responses are mediated by specific NT receptors and are not inhibited by naloxone. A very sensitive and reliable hot plate test was used to measure the anti-nociceptive effects of NT (Al-Rodhan N.R.F., Brain Res. 557:227-235 (1991)).\nNTR1-PNA, MU1R-PNA, and ACSF treated as well as untreated rats were analyzed using the hot plate test for NT. One day after the last treatment, each rat was analyzed as follows. Fifteen minutes prior to testing, a pre-drug latency measurement was made by placing the rat on a hot plate maintained at a temperature of 52±0.15° C. and recording the time elapsed before the rat licked either of its hindpaws. In addition, the temperature of the rat was taken using a thermister probe inserted 3 cm in the rectum to determine the pre-drug body temperature (BT). After making these measurement, an appropriate dose of NT (18 nmol) at a volume of about 0.5 ul was administered into the PAG as described above. Thirty minutes after administering NT, the rat was again placed on a hot plate maintained at a temperature of 52±0.15° C. and the latency between the time the rat was placed on the surface and the time it licked either of its hindpaws was measured. […] Hot plate tests were scored as the percent of maximum possible effect (% MPE) and calculated using the following equation: % MPE=[(post-drug latency−pre-drug latency)/(cut-off−pre-drug latency)]×100; where the cut-off is 30 seconds. […] This average for untreated control rats was used to set the baseline MPE value to 100. Immediately after the 30 second hot plate test, BT was taken to measure NT-induced hypothermia using a thermister probe inserted 3 cm in the rectum. […] All test situations were compared to these baseline values derived from NT responsive untreated controls. […]"}, "[2]": {"test_system": "neurotensin receptor-1 (NTR1)", "assay": "NT-induced hypothermia (rectal body temperature) in PNA-treated rats", "format": "in vivo, rat", "conditions": "for body temperature change in response to NT: NT 18 nmol 24 hours later", "protocol": "NTR1-PNA, MU1R-PNA, and ACSF treated as well as untreated rats were analyzed using the hot plate test for NT. One day after the last treatment, each rat was analyzed as follows. Fifteen minutes prior to testing, a pre-drug latency measurement was made by placing the rat on a hot plate maintained at a temperature of 52±0.15° C. and recording the time elapsed before the rat licked either of its hindpaws. In addition, the temperature of the rat was taken using a thermister probe inserted 3 cm in the rectum to determine the pre-drug body temperature (BT). After making these measurement, an appropriate dose of NT (18 nmol) at a volume of about 0.5 ul was administered into the PAG as described above. Thirty minutes after administering NT, the rat was again placed on a hot plate maintained at a temperature of 52±0.15° C. and the latency between the time the rat was placed on the surface and the time it licked either of its hindpaws was measured. […] Hot plate tests were scored as the percent of maximum possible effect (% MPE) and calculated using the following equation: % MPE=[(post-drug latency−pre-drug latency)/(cut-off−pre-drug latency)]×100; where the cut-off is 30 seconds. […] This average for untreated control rats was used to set the baseline MPE value to 100. Immediately after the 30 second hot plate test, BT was taken to measure NT-induced hypothermia using a thermister probe inserted 3 cm in the rectum. […] All test situations were compared to these baseline values derived from NT responsive untreated controls.\n(§2) AS-NTR1-PNA, mismatch-AS-NTR1-PNA, and MU1R-PNA were injected intraperitoneally (10 mg/kg) independently, into separate groups of male Sprague-Dawley rats (Harlan, Prattville, Ala.). The sense-NTR1-PNA oligomer, however, was microinjected directly into the periaqueductal gray (PAG; 5 μg), the major area in the brain involved with perception of pain (nociception). […] Thirty minutes after receiving NT, animals were scored for anti-nociception (hot plate at 52° C.) and hypothermia (rectal probe). Again, anti-nociception scores were calculated as percent of maximum possible effect (% MPE) with the following equation: % MPE=[(post-drug latency time minus pre-drug latency time)/(cut-off time minus pre-drug latency time)]×100; where the cut-off time (i.e., the time when the animal was removed from the device) was 30 seconds for a hot plate test and 12 seconds for a tail flick test. Statistical analysis was done using the rank sum test."}, "[3]": {"test_system": "plasma membrane serotonin transporter", "assay": "Hyperactivity (activity chamber) after tranylcypromine challenge", "format": "in vivo, rat", "conditions": "5 mg/kg i.p., then 15 mg/kg TCP 48 hours later", "method": "To test the ability of SERT-PNA oligomers to engender a biological response, e.g., a reduction of plasma membrane serotonin transporter expression, SERT-PNA oligomers were administered to rats with and without tranylcypromine (TCP), a MAO inhibitor.\nA solution containing 5 mg/kg of SERT-PNA oligomers in saline was injected directly into the peritoneal cavity of male Sprague-Dawley rats (200-250 g). Each rat received a single injection on day zero and the volume injected was about 200 μl. Controls included rats receiving injections of saline only and injections of TCP only.\nTo monitor hyperactivity, an Opto-Varimex-Minor activity chamber (Columbus Instruments, Columbus, Ohio) was used. Briefly, this activity chamber records the number of times an animal disrupts an infrared beam while in a 42 cm by 42 cm chamber. Other signs of hyperactivity were noted by gross observation."}, "mu-1 receptor (MU1R)": {"test_system": "mu-1 receptor (MU1R)", "assay": "Tail flick test of MOR-mediated anti-nociception in PNA-treated rats", "format": "in vivo, rat", "protocol": "The injection of MOR into rats produces a potent anti-nociceptive response. This response is mediated by specific MOR receptors and is inhibited by naloxone. A very sensitive and reliable tail flick test was devised and used to measure the anti-nociceptive effects of MOR (D'Amour F. E. and Smith D. L, J. Pharm. Exp. Therap. 72:74-79 (1941)).\nMU1R-PNA, NTR1-PNA, and ACSF treated as well as untreated rats were analyzed using the MOR-specific tail flick test. One day after the last treatment, each rat was analyzed as follows. Thirty minutes prior to testing, a pre-drug latency measurement was made by placing the tail of the restrained rat in oil maintained at a temperature of 60° C. and recording the time elapsed before the rat flicked its tail. After making this measurement, an appropriate dose of MOR (5 mg/kg of body weight) at a volume of about 200 μl was injected i.p. Thirty minutes after administering MOR, the restrained rat's tail was again placed in the oil maintained at 60° C. and the latency between the time the tail was placed in the oil and the time the rat flicked its tail was measured. […] Tail flick tests were scored as the percent of MPE and calculated using the following equation: % MPE=[(post-drug latency−pre-drug latency)/(cut-off−pre-drug latency)]×100; where the cut-off is 12 seconds. […] This average for untreated control rats was used to set the baseline A MPE value to 100. All test situations were compared to this baseline response value derived from MOR responsive untreated controls. To test the significance, data were analyzed using the Student's t-test with p<0.05 being considered significant.\nas §2"}, "[4]": {"conditions": "10 mg/kg intraperitoneally, NT 18 nmol into PAG 24 hours later"}, "[5]": {"conditions": "PNA injected into PAG on days -4, -2, 0, NT 18 nmol into PAG"}}, "data": [{"substance": "sense-NTR1-PNA: sense PNA oligomer for NTR1, complementary to AS-NTR1-PNA, 5′-GTTTGAGCAATG-3′ (SEQ ID NO:13) (all peptide nucleic acid (PNA); sense control PNA, further chemistry not fully specified)", "values": [{"measurement": "reduction in the NTR1/GAPDH ratio of mRNA", "setting": "NTR1 mRNA", "result": 50, "unit": "%"}, {"measurement": "change in MU1R/GAPDH ratio of mRNA", "setting": "MU1R mRNA", "result": "no change"}, {"measurement": "anti-nociception score (hot plate) after NT", "setting": "[1]; [4]", "result": "5.4±5.4", "unit": "% MPE"}, {"measurement": "anti-nociception score (hot plate) after NT", "setting": "[1]; PNA microinjected into PAG (printed 5% g), NT 18 nmol 24 hours later", "result": 14, "unit": "% MPE"}, {"measurement": "body temperature change in response to NT", "setting": "[2]; 10 mg/kg intraperitoneally", "result": "−0.45±0.15", "unit": "°C"}, {"measurement": "body temperature change in response to NT", "setting": "[2]; PNA into PAG, 5 μg", "result": "−0.5", "unit": "°C"}]}, {"substance": "mismatch-AS-NTR1-PNA: PNA oligomer like AS-NTR1-PNA with a mismatch at every third base pair, 5′-TATGGCACAGAC-3′ (SEQ ID NO:12) (all peptide nucleic acid (PNA); further chemistry not fully specified)", "values": [{"measurement": "anti-nociception score (hot plate) after NT", "setting": "[1]; [4]", "result": 60, "unit": "% MPE"}, {"measurement": "body temperature change in response to NT", "setting": "[2]; 10 mg/kg intraperitoneally", "result": "−1.3", "unit": "°C"}]}, {"substance": "SERT-PNA: 12-mer antisense PNA oligomer to rat plasma membrane serotonin transporter, 5′-GCCAGATGTTGC-3′ (SEQ ID NO: 3) (all peptide nucleic acid (PNA); further chemistry not fully specified)", "values": [{"measurement": "hyperactivity after TCP", "setting": "[3]", "result": "extreme hyperactivity"}, {"measurement": "time to extreme hyperactivity after TCP treatment", "setting": "[3]", "result": "≤ 10", "unit": "min"}]}, {"substance": "MU1R-PNA: 14-mer antisense PNA oligomer to mu-1 receptor 5′ non-coding region, 5′-CAGCCTCTTCCTCT-3′ (SEQ ID NO: 2) (all peptide nucleic acid (PNA); further chemistry not fully specified)", "values": [{"measurement": "anti-nociception score (hot plate) after NT", "setting": "[1]; [4]", "result": 82, "unit": "% MPE"}, {"measurement": "MPE (hot plate) response to NT challenge as percent of baseline response", "setting": "[1]; [5]", "result": "indistinguishable from the baseline responses"}, {"measurement": "BT (hypothermia) response to NT challenge as percent of baseline response", "setting": "[2]; [5]", "result": "indistinguishable from the baseline responses"}, {"measurement": "time until which MOR-mediated anti-nociception remained significantly reduced", "setting": "mu-1 receptor (MU1R); PNA injected into PAG on days -4, -2, 0", "result": "day twelve"}, {"measurement": "responsiveness to MOR challenge (tail flick)", "setting": "mu-1 receptor (MU1R); one day after single i.p. injection of 3 mg/kg", "result": "unable to respond to MOR challenge"}]}]}
